From US6825230B2, “Spiro and dispiro 1,2,4-trixolane antimalarials” (Medicines for Malaria Venture MMV, priority 2002, dated 2004)
Values after ≈ are worked out from the molar mass of the structure shown.

How the values were obtained:
[1] = system: Schistosoma mansoni 21-day-old schistosomules; test: Effect on 21-day-old schistosomules in infected mice; assay type: in vivo; conditions: for % reduction of schistosomule growth at day 21 after per os application of 200 mg/kg, FWR (%): female worm reduction rate
Description: Mice were infected with 100 Schistosoma mansoni cercariae on day 21 post-treatment. Each group was treated per os with trioxolanes at a single dose of 200 mg/kg. […] All groups were killed 4 weeks after treatment and the liver and intestine were removed and separated. The liver and intestine were compressed and alive male and female worms could be seen and counted. The effect of the compounds was evaluated by mean total and female worm burden.

[2] = system: Schistosoma mansoni adult worms (49-day-old); test: Effect on adult schistosomes (49-day-old) in infected mice; assay type: in vivo; conditions: for % reduction of adult worms growth at day 49 after per os application of 400 mg/kg, TWR (%) / Adult worms day 49, per os 400 mg/kg, DEAD WORM (%): single 400 mg/kg per os
Description: Mice were infected with 100 Schistosoma mansoni cercariae on day 49 post-treatment. Each group was treated per os with OZ compounds at single doses of 200, 400, and 600 mg/kg. Untreated mice served as the control. All groups were killed 4 weeks after treatment and the liver and intestine were removed and separated. The liver and intestine were compressed and alive male and female worms could be seen and counted.

[3] = system: chloroquine-resistant K1 strain of P. falciparum; test: In vitro antimalarial semiautomated microdilution assay ([3H]-hypoxanthine incorporation), K1 strain; assay type: cell-based, Plasmodium falciparum; conditions: Plasmodium falciparum, K1, 72 h, read-out: IC50 (ng/ml) K1, chloroquine-resistant K1 strain, 72 h incubation
Outline: (§1)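 Asynchronous stock-culture parasites (intraerythrocytic forms), serial compound dilutions; readout [3H]-hypoxanthine uptake; IC50 via Logit regression.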

[4] = system: ANKA strain of P. berghei; test: Single dose STI in vivo screen in infected mice; parameters: species or system Plasmodium berghei; conditions: for Survival (days) 10 mg/kg po: single 10 mg/kg po in 3% ethanol and 7% Tween 80; for Survival (days) 10 mg/kg po / Survival (days) 10 mg/kg SSV po / Survival (days) 10 mg/kg sc: untreated 6-7 days; for Activity (%) 10 mg/kg po: single 10 mg/kg po in 3% ethanol and 7% Tween 80 on day 1 post-infection; for Activity (%) 10 mg/kg po / Activity (%) 10 mg/kg SSV po / Activity (%) 10 mg/kg sc: percent reduction in parasitemia on day 3; for Survival (days) 10 mg/kg SSV po: single 10 mg/kg po in SSV; for Activity (%) 10 mg/kg SSV po: single 10 mg/kg po in standard suspending vehicle (SSV) on day 1 post-infection; for Survival (days) 10 mg/kg sc: single 10 mg/kg sc in 3% ethanol and 7% Tween 80; for Activity (%) 10 mg/kg sc: single 10 mg/kg sc in 3% ethanol and 7% Tween 80 on day 1 post-infection
[5] = system: chloroquine-sensitive NF54 strain of P. falciparum; test: In vitro antimalarial semiautomated microdilution assay ([3H]-hypoxanthine incorporation), NF54 strain; assay type: cell-based, Plasmodium falciparum; conditions: Plasmodium falciparum, NF54, 72 h, read-out: IC50 (ng/ml) NF54, chloroquine-sensitive NF54 strain, 72 h incubation
Outline: as §1

[6] = single 200 mg/kg per os, 21-day-old schistosomules
[7] = 49-day-old adults, total worm reduction rate
[8] = percentage of dead worm in the liver
[9] = single 200 mg/kg per os, 21-day-old schistosomules, total worm reduction rate

SMILES | % reduction of schistosomule growth at day 21 after per os application of 200 mg/kg, FWR (%) [1, 6] [%] | % reduction of adult worms growth at day 49 after per os application of 400 mg/kg, TWR (%) [2, 7] | Adult worms day 49, per os 400 mg/kg, DEAD WORM (%) [2, 8] | % reduction of schistosomule growth at day 21 after per os application of 200 mg/kg, TWR (%) [1, 9] [%] | further results
C1CCC2(CC1)OOC1(O2)C2CC3CC(C2)CC1C3 (stereo not shown) [OZ03] | 74 | 29% | 8% |  | % reduction of schistosomule growth at day 21 after per os application of 200 mg/kg, TWR (%) ([1]; po, 200 mg/kg, 504 h): 74%
C1C2CC3CC1CC(C2)C31OOC2(O1)C1CC3CC(C1)CC2C3 (stereo not shown) [OZ04] | 7 | 0/0% | 0/0% | 7 | 
C1COC2(CCC3(CC2)OOC2(O3)C3CC4CC(C3)CC2C4)O1 (stereo not shown) [OZ10] | 73 | 28% | 13% | 66 | % reduction of adult worms growth at day 49 after per os application of 600 mg/kg, TWR (%) ([2]; single 600 mg/kg per os, 49-day-old adults, total worm reduction rate): 21%; Adult worms day 49, per os 600 mg/kg, DEAD WORM (%) ([2]; single 600 mg/kg per os, percentage of dead worm in the liver): 23%
O=C1CC2CC3(CC2C1)OOC1(O3)C2CC3CC(C2)CC1C3 (stereo not shown) [OZ12] | 79 | 14% | 0% | 78 | 
O=C1C2C3CC4C5C3C1C5C1(OOC3(O1)C1CC5CC(C1)CC3C5)C42 (stereo not shown) [OZ14] | 0 | 0/0% | 0/0% | 7 | 
CON=C1CCC2(CC1)OOC1(O2)C2CC3CC(C2)CC1C3 (stereo not shown) [OZ15] | 70 | 0% | 10% | 63 | 
O=C1CCC2(CCO1)OOC1(O2)C2CC3CC(C2)CC1C3 (stereo not shown) [OZ17] | 7 | 0% | 5% |  | % reduction of schistosomule growth at day 21 after per os application of 200 mg/kg, TWR (%) ([1]; po, 200 mg/kg, 504 h): 23%
CC(C)(C)C1CCC2(CC1)OOC1(O2)C2CC3CC(C2)CC1C3 (stereo not shown) [OZ18] | 9 | 0/0% | 0/0% | 12 | 
C1CCCCCC2(CCCCC1)OOC1(O2)C2CC3CC(C2)CC1C3 (stereo not shown) [OZ20] | 0 | 0/0% | 0/0% | 0 | 
O=C1CCC2(CC1)OOC1(CCCCCCCCCCC1)O2 [OZ21] | 0 | 0/0% | 0/0% | 0 | 
CCOC(=O)N1CCC2(CC1)OOC1(O2)C2CC3CC(C2)CC1C3 (stereo not shown) [OZ23] | 84 | 0% | 4% | 90 | 
O=C(c1ccccc1)N1CCC2(CC1)OOC1(O2)C2CC3CC(C2)CC1C3 (stereo not shown) [OZ24] | 61 | 21% | 0% | 65 | 
CCCC1CCC2(CC1)OOC1(O2)C2CC3CC(C2)CC1C3 (stereo not shown) [OZ25] | 84 | 46% | 34% | 86 | 
O=[N+]([O-])c1ccc(NN=C2CCC3(CC2)OOC2(O3)C3CC4CC(C3)CC2C4)c([N+](=O)[O-])c1 (stereo not shown) [OZ29] | 20 | 0/0% | 0/0% | 28 | 
c1ccc2c(c1)COC1(CCC3(CC1)OOC1(O3)C3CC4CC(C3)CC1C4)OC2 (stereo not shown) [OZ31] | 63 | 4/4% | 4/4% | 60 | 
OC1CCC2(CC1)OOC1(O2)C2CC3CC(C2)CC1C3 (stereo not shown) [OZ32] | 70 | 27% | 28% | 73 | 
CC1(C)COC2(CCC3(CC2)OOC2(CC(C)(C)CC(C)(C)C2)O3)OC1 [OZ36] | 12 | 0/0% | 0/0% | 16 | 
O=C(O)C1CCC2(CC1)OOC1(O2)C2CC3CC(C2)CC1C3 (stereo not shown) [OZ71] | 85 | 0% |  | 91 | Adult worms day 49, per os 400 mg/kg, DEAD WORM (%) ([2]; percentage of dead worm in the liver, listed as OZ 71): 16%
C1CC2(CCN1)OOC1(O2)C2CC3CC(C2)CC1C3.Cl (stereo not shown) [OZ80] | 75 |  |  | 79 | % reduction of adult worms growth at day 49 after per os application of 200 mg/kg, TWR (%) ([2]; single 200 mg/kg per os, 49-day-old adults, total worm reduction rate): 0%; Adult worms day 49, per os 200 mg/kg, DEAD WORM (%) ([2]; single 200 mg/kg per os, percentage of dead worm in the liver): 3%
CN1CCN(C(=O)N2CCC3(CC2)OOC2(O3)C3CC4CC(C3)CC2C4)CC1 (stereo not shown) [OZ157, Adamantane-2-spiro-3′-8′-[(4′-methyl-1′-piperazinyl)carbonyl]-1′,2′,4′-trioxa-8′-azaspiro[4.5]decane] | 68 |  |  | 65 | IC50 [3]: 0.2 ng/mL (≈ 0.511 nM); Survival (days) 10 mg/kg po [4]: 7.3 days; Activity (%) 10 mg/kg po [4]: 90%; Survival (days) 10 mg/kg SSV po [4]: 8.3 days; Activity (%) 10 mg/kg SSV po [4]: 80%; Survival (days) 10 mg/kg sc [4]: 8.3 days; Activity (%) 10 mg/kg sc [4]: 97%; IC50 [5]: 0.22 ng/mL (≈ 0.562 nM)
C1CCN(C2CCC3(CC2)OOC2(O3)C3CC4CC(C3)CC2C4)CC1 (stereo not shown) [OZ159] | 19 |  |  | 19 | IC50 [3]: 0.7 ng/mL (≈ 2.01 nM); Survival (days) 10 mg/kg po [4]: 6.7 days; Activity (%) 10 mg/kg po [4]: 34%; Survival (days) 10 mg/kg SSV po [4]: 6.7 days; Activity (%) 10 mg/kg SSV po [4]: 31%; Survival (days) 10 mg/kg sc [4]: 9.0 days; Activity (%) 10 mg/kg sc [4]: 98%; IC50 [5]: 0.94 ng/mL (≈ 2.71 nM)
c1ccc(CNC2CCC3(CC2)OOC2(O3)C3CC4CC(C3)CC2C4)cc1 (stereo not shown) [OZ160] | 0 |  |  | 0 | IC50 [3]: 0.7 ng/mL (≈ 1.89 nM); Survival (days) 10 mg/kg po [4]: 6.3 days; Activity (%) 10 mg/kg po [4]: 45%; Survival (days) 10 mg/kg SSV po [4]: 6.7 days; Activity (%) 10 mg/kg SSV po [4]: 43%; Survival (days) 10 mg/kg sc [4]: 12.0 days; Activity (%) 10 mg/kg sc [4]: 99.94%; IC50 [5]: 0.87 ng/mL (≈ 2.35 nM)
C1C2CC3CC1CC(C2)C31OOC2(CCC3(CC2)OOC2(O3)C3CC4CC(C3)CC2C4)O1 (stereo not shown) [OZ169, Adamantane-2-spiro-3′-1′,2′,4′,9′,10′,12′-hexaoxadispiro[4.2.4.2]tetradecane-11′-spiro-2″-adamantane] | 0 |  |  | 0 | IC50 [3]: 15 ng/mL (≈ 33.7 nM); Survival (days) 10 mg/kg po [4]: 7.7 days; Activity (%) 10 mg/kg po [4]: 98%; Survival (days) 10 mg/kg SSV po [4]: 6.7 days; Activity (%) 10 mg/kg SSV po [4]: 22%; Survival (days) 10 mg/kg sc [4]: 9.0 days; Activity (%) 10 mg/kg sc [4]: 99.76%; IC50 [5]: > 10 ng/mL
